According to patent US20210369684A1 (MOUNT TAM THERAPEUTICS, INC., priority 2018, published 2021):

Columns and labels:
6-OHDA injected mice [1] = assay: Anti-TH immunohistochemistry, 6-OHDA-induced neuronal loss (TH-positive somas in SN); assay type: in vivo, mouse; conditions: one-way ANOVA, FIG. 4B
Procedure: Immunohistochemistry analysis using anti-tyrosine hydroxylase (TH) antibody was also performed to quantify 6-OHDA-induced neuronal loss in mice injected with 6-OHDA and non-injected (control) sides of the brain. […] FIG. 4B presents the mean and standard error of the mean (SEM) as well as statistical analysis of the results.

6-OHDA injected mice [2] = assay: Anti-TH immunohistochemistry, 6-OHDA-induced striatal denervation; assay type: in vivo, mouse; conditions: one-way ANOVA, FIG. 3B
Procedure: Immunohistochemistry analysis using anti-tyrosine hydroxylase (TH) antibody was performed in mouse midbrain sections to quantify 6-OHDA-induced striatal denervation in mice injected with 6-OHDA and non-injected (control) sides of the brain. […] In contrast, both the 6-OHDA/rapamycin-treated and the 6-OHDA/Formula II-treated sides of the brain show increased staining with the anti-TH antibody, as indicated by the dark shading in those figures. FIG. 3B presents the mean and standard error of the mean (SEM) of the integrated density of anti-TH antibody staining in the striatum, as well as statistical analysis of the results for the groups of mice.

CO[C@H]1C[C@@H]2CC[C@@H](C)[C@@](O)(O2)C(=O)C(=O)N2CCCC[C@H]2C(=O)O[C@H]([C@H](C)C[C@@H]2CC[C@@H](O)[C@H](OC)C2)CC(=O)[C@H](C)/C=C(\C)[C@@H](O)[C@@H](OC)C(=O)[C@H](C)C[C@H](C)/C=C/C=C/C=C/1C [rapamycin, Rapamycin, reference compound]
TH+ neuronal loss, p versus vehicle control (6-OHDA injected mice [1]): < 0.001
integrated density of anti-TH staining in striatum, p versus vehicle control (6-OHDA injected mice [2]): < 0.05
